Measured values: US20210045385A1, “PYRIDAZINONE-SUBSTITUTED KETOXIMES AS HERBICIDES” (FMC Corporation, priority 2018, published 2021)

Tests used:
Type in all cases: in vivo
[1] = system: Italian ryegrass (Lolium multiflorum); assay: Test A preemergence, visual plant response rating; settings: approx. 10 days
Outline: (§1)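 Greenhouse pot test in loam–sand soil mix: compound in a surfactant-containing non-phytotoxic solvent applied preemergence (directed soil spray) or postemergence (one- to two-leaf plants, 2–10 cm). Injury scored visually after ~10 days, 0–100.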

[2] = system: ragweed (common ragweed, Ambrosia elatior); assay: Test A preemergence, visual plant response rating; settings: approx. 10 days
Outline: as §1

[3] = system: kochia (Kochia scoparia); assay: Test A preemergence, visual plant response rating; settings: approx. 10 days
Outline: as §1

[4] = system: barnyardgrass (Echinochloa crus-galli); assay: Test A preemergence, visual plant response rating; settings: approx. 10 days
Outline: as §1

[5] = system: pigweed (Amaranthus retroflexus); assay: Test A preemergence, visual plant response rating; settings: approx. 10 days
Outline: as §1

[6] = system: foxtail, green (green foxtail, Setaria viridis); assay: Test A preemergence, visual plant response rating; settings: approx. 10 days
Outline: as §1

[7] = system: Italian ryegrass (Lolium multiflorum); assay: Test A postemergence, visual plant response rating
Outline: as §1

[8] = system: ragweed (common ragweed, Ambrosia elatior); assay: Test A postemergence, visual plant response rating
Outline: as §1

[9] = system: kochia (Kochia scoparia); assay: Test A postemergence, visual plant response rating
Outline: as §1

[10] = system: barnyardgrass (Echinochloa crus-galli); assay: Test A postemergence, visual plant response rating
Outline: as §1

[11] = system: wheat (Triticum aestivum); assay: Test A postemergence, visual plant response rating
Outline: as §1

[12] = system: corn (Zea mays); assay: Test A postemergence, visual plant response rating
Outline: as §1

[13] = system: pigweed (Amaranthus retroflexus); assay: Test A postemergence, visual plant response rating
Outline: as §1

[14] = system: foxtail, green (green foxtail, Setaria viridis); assay: Test A postemergence, visual plant response rating
Outline: as §1

[15] = system: galium (catchweed bedstraw, Galium aparine); assay: Test A postemergence, visual plant response rating
Outline: as §1

[16] = system: blackgrass (Alopecurus myosuroides); assay: Test A postemergence, visual plant response rating
Outline: as §1

[17] = system: sedge, umbrella (small-flower umbrella sedge, Cyperus difformis); assay: Test B flooded paddy test, visual plant response rating; settings: 250 g ai/ha, Flood, applied to paddy water, 2-leaf stage, evaluated after 13 to 15 days
Outline: (§2)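 Seedlings at 2 leaves; compound into paddy water (3 cm flood, maintained); 13–15 d greenhouse; visual score relative to controls.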

[18] = system: rice (Oryza sativa); assay: as above; settings: 250 g ai/ha, Flood, applied to paddy water, 2-leaf stage, evaluated after 13 to 15 days
Outline: as §2

[19] = system: barnyardgrass (Echinochloa crus-galli); assay: as above; settings: 250 g ai/ha, Flood, applied to paddy water, 2-leaf stage, evaluated after 13 to 15 days
Outline: as §2

[20] = system: ducksalad (Heteranhera limosa); assay: as above; settings: 250 g ai/ha, Flood, applied to paddy water, 2-leaf stage, evaluated after 13 to 15 days
Outline: as §2

[21] = 500 g ai/ha, postemergence, 0 is no effect, 100 is complete control
[22] = Postemergence, 125 g ai/ha, 0 to 100 scale (0 no effect, 100 complete control)

SMILES: CCO/N=C(/c1cccc(Cl)c1)c1c(O)c(C)nn(C)c1=O [Compound 9]
- Ryegrass, Italian plant response rating (0 to 100 scale) ([1]; 125 g ai/ha Preemergence): 20
- Ryegrass, Italian plant response rating (0 to 100 scale) ([1]; 500 g ai/ha Preemergence): 40
- Ragweed plant response rating (0 to 100 scale) ([2]; 125 g ai/ha Preemergence): 80
- Ragweed plant response rating (0 to 100 scale) ([2]; 500 g ai/ha Preemergence): 90
- Kochia plant response rating (0 to 100 scale) ([3]; 125 g ai/ha Preemergence): 10
- Kochia plant response rating (0 to 100 scale) ([3]; 500 g ai/ha Preemergence): 60
- Barnyardgrass plant response rating (0 to 100 scale) ([4]; 125 g ai/ha Preemergence): 0
- Barnyardgrass plant response rating (0 to 100 scale) ([4]; 500 g ai/ha Preemergence): 50
- Pigweed plant response rating (0 to 100 scale) ([5]; 125 g ai/ha Preemergence): 40
- Pigweed plant response rating (0 to 100 scale) ([5]; 500 g ai/ha Preemergence): 90
- Foxtail, Green plant response rating (0 to 100 scale) ([6]; 125 g ai/ha Preemergence): 20
- Foxtail, Green plant response rating (0 to 100 scale) ([6]; 500 g ai/ha Preemergence): 40
- Ryegrass, Italian plant response rating (0 to 100 scale) [7, 21]: 60
- Ryegrass, Italian plant response rating [7, 22]: 40
- Ragweed plant response rating (0 to 100 scale) [8, 21]: 80
- Ragweed plant response rating [8, 22]: 30
- Kochia plant response rating (0 to 100 scale) [9, 21]: 60
- Kochia plant response rating [9, 22]: 10
- Barnyardgrass plant response rating (0 to 100 scale) [10, 21]: 20
- Barnyardgrass plant response rating [10, 22]: 0
- Wheat plant response rating (0 to 100 scale) [11, 21]: 0
- Wheat plant response rating [11, 22]: 0
- Corn plant response rating (0 to 100 scale) [12, 21]: 10
- Corn plant response rating [12, 22]: 0
- Pigweed plant response rating (0 to 100 scale) [13, 21]: 20
- Pigweed plant response rating [13, 22]: 0
- Foxtail, Green plant response rating (0 to 100 scale) [14, 21]: 30
- Foxtail, Green plant response rating [14, 22]: 10
- Galium plant response rating (0 to 100 scale) [15, 21]: 90
- Galium plant response rating [15, 22]: 80
- Blackgrass plant response rating (0 to 100 scale) [16, 21]: 20
- Blackgrass plant response rating [16, 22]: 0
- Plant response rating, Sedge, Umbrella (0 to 100 scale, 0 is no effect, 100 is complete control) [17]: 0
- Plant response rating, Rice (0 to 100 scale, 0 is no effect, 100 is complete control) [18]: 0
- Plant response rating, Barnyardgrass (0 to 100 scale, 0 is no effect, 100 is complete control) [19]: 0
- Plant response rating, Ducksalad (0 to 100 scale, 0 is no effect, 100 is complete control) [20]: 0
